Laboratory results from patent publication US8748417B2, “Amino-pyrrolidine-azetidine diamides as monoacylglycerol lipase inhibitors” (Janssen Pharmaceutica, NV, priority 2010, dated 2014).

Legend:
[1] = tested on: MGL (rat brain homogenate); test: 2-AG accumulation assay in rat brain homogenate; type: biochemical; conditions: compound 1 μM, percent of vehicle 2-AG accumulation
Description: After a 15-min incubation time at 37° C., CaCl2 (final concentration=10 mM) was added and then incubated for 15 min at 37° C. in a total volume of 5 mL. The reactions were stopped with 6 mL organic solvent extraction solution of 2:1 chloroform/methanol. Accumulated 2-AG in the organic phase was measured by a HPLC/MS method, according to the following equation: percent vehicle=(2-AG accumulation in the presence of compound/2-AG accumulation in vehicle)×100.

[2] = target: T1, purified wild type MGL (wt-MGLL 6H-11-313) (Homo sapiens, UniProt Q99685); test: MGL enzyme activity assay (4MU-B cleavage), wild type MGL; type: biochemical; conditions: wild type MGL 5 nM, 4MU-B 10 μM, 37° C.; read-out: MGL wild type inh IC50
T1 construct: purified wild type MGL (wt-MGLL 6H-11-313)
T1 sequence (Q99685 1-303): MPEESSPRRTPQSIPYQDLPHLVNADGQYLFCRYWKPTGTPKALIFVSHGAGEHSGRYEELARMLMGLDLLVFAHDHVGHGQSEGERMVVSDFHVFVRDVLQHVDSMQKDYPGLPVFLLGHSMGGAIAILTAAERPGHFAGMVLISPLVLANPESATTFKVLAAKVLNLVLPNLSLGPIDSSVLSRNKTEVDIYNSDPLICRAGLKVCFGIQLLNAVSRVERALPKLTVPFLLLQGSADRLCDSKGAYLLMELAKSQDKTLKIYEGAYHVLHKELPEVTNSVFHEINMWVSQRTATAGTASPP
Description: All rate-based assays were performed in black 384-well polypropylene PCR microplates (Abgene) in a total volume of 30 μL. Substrate 4-methylumbelliferyl butyrate (4MU-B; Sigma) and either purified mutant MGL (mut-MGLL 11-313 L179S L186S) or purified wild type MGL (wt-MGLL 6H-11-313) were diluted separately into 20 mM PIPES buffer (pH=7.0), containing 150 mM NaCl and 0.001% Tween 20. Compounds of Formula (I) were pre-dispensed (50 nL) into the assay plate using a Cartesian Hummingbird prior to adding 4MU-B (25 μL of 1.2× solution to a final concentration of 10 μM) followed by enzyme (5 μL of a 6× solution to a final concentration of 5 nM) to initiate the reaction. Final compound concentrations ranged from 17 to 0.0003 μM. The fluorescence change due to 4MU-B cleavage was monitored with excitation and emission wavelengths of 335 and 440 nm, respectively, and a bandwidth of 10 nm (Safire^2, Tecan) at 37° C. for 5 min.
The IC50 values for the following compounds were determined using Microsoft Office Excel from a fit of the equation to the concentration-response plot of the fractional activity as a function of inhibitor concentration.

In the case of `O=C(c1ccc(C(O)c2ccc(C(F)(F)F)cc2)cc1)N1CC(N[C@H]2CCN(C(=O)c3ccccc3)C2)C1` (stereo partly drawn) [Cpd 67], the “Rat Brain 2AG % VehCntrl (%) @1 μM” value [1] is reported as 928% and the IC50 [2] is reported as 9.7 nM.

`CC(C)=Cc1c(C(=O)N2CC(N[C@H]3CCN(C(=O)c4ccccc4)C3)C2)sc2cc(C(F)(F)F)ccc12` [Cpd 76, (3S)-N-(1-{[3-(2-Methylprop-1-en-1-yl)-6-(trifluoromethyl)-1-benzothiophen-2-yl]carbonyl}azetidin-3-yl)-1-(phenylcarbonyl)pyrrolidin-3-amine] was tested, and the “Rat Brain 2AG % VehCntrl (%) @1 μM” value [1] was 522% and the IC50 [2] was 61.8 nM.

With `O=C(c1ccc(Cc2ccc(C(F)(F)F)cc2)cc1)N1CC(N[C@H]2CCN(C(=O)c3ccccc3)C2)C1` [Cpd 77, (S)-(3-((1-Benzoylpyrrolidin-3-yl)amino)azetidin-1-yl)(4-(4-(trifluoromethyl)benzyl)phenyl)methanone] the “Rat Brain 2AG % VehCntrl (%) @1 μM” value [1] was 506% and the IC50 [2] was under 5 nM.

In the case of `Cc1c(C(=O)N2CC(N[C@H]3CCN(C(=O)c4ccccc4)C3)C2)sc2cc(C(F)(F)F)ccc12` [Cpd 80, (3S)-N-(1-{[3-Methyl-6-(trifluoromethyl)-1-benzothiophen-2-yl]carbonyl}azetidin-3-yl)-1-(phenylcarbonyl)pyrrolidin-3-amine], the “Rat Brain 2AG % VehCntrl (%) @1 μM” value [1] is reported as 174% and the IC50 [2] is reported as 22.6 nM.

For `O=C(c1cscn1)N1CC[C@H](NC2CN(C(=O)c3cc4ccc(C(F)(F)F)cc4s3)C2)C1` [Cpd 139, (3S)-1-(1,3-Thiazol-4-ylcarbonyl)-N-(1-{[6-(trifluoromethyl)-1-benzothiophen-2-yl]carbonyl}azetidin-3-yl)pyrrolidin-3-amine], the IC50 [2] was 311 nM.

For `Cc1cc(-c2cccc(C(F)(F)F)c2)ccc1C(=O)N1CC(N[C@H]2CCN(C(=O)c3ccccc3)C2)C1` [Cpd 153, (3S)-N-(1-{[3-Methyl-3′-(trifluoromethyl)biphenyl-4-yl]carbonyl}azetidin-3-yl)-1-(phenylcarbonyl)pyrrolidin-3-amine], the IC50 [2] was 176 nM.

`O=C(c1ccc2c(ccn2-c2ncccn2)c1)N1CC(N[C@H]2CCN(C(=O)c3ccccc3)C2)C1` [Cpd 155, (3S)-1-(Phenylcarbonyl)-N-{1-[(1-pyrimidin-2-yl-1H-indol-5-yl)carbonyl]azetidin-3-yl}pyrrolidin-3-amine] gave an IC50 [2] of 1280 nM.

`O=C(c1ccc2c(cnn2-c2ccccc2)c1)N1CC(N[C@H]2CCN(C(=O)c3ccccc3)C2)C1` [Cpd 156, (3S)-1-(Phenylcarbonyl)-N-{1-[(1-phenyl-1H-indazol-5-yl)carbonyl]azetidin-3-yl}pyrrolidin-3-amine] was tested, and the IC50 [2] was 482 nM.

Compound `O=C(c1ccc2nc(-c3ccccc3)sc2c1)N1CC(N[C@H]2CCN(C(=O)c3ccccc3)C2)C1` [Cpd 157, (3S)-N-{1-[(2-Phenyl-1,3-benzothiazol-6-yl)carbonyl]azetidin-3-yl}-1-(phenylcarbonyl)pyrrolidin-3-amine] has an IC50 [2] of 211 nM.

Work on `Cn1cc(-c2ccccc2)c2ccc(C(=O)N3CC(N[C@H]4CCN(C(=O)c5cscn5)C4)C3)cc21` [Cpd 170, (3S)-N-{1-[(1-Methyl-3-phenyl-1H-indol-6-yl)carbonyl]azetidin-3-yl}-1-(1,3-thiazol-4-ylcarbonyl)pyrrolidin-3-amine] yielded an IC50 [2] of 350 nM.

In the case of `O=C(c1ccccc1)N1CC[C@H](NC2CN(C(=O)c3sc4cc(Cl)ccc4c3C(F)(F)F)C2)C1` [Cpd 182, (3S)-N-(1-{[6-Chloro-3-(trifluoromethyl)-1-benzothiophen-2-yl]carbonyl}azetidin-3-yl)-1-(phenylcarbonyl)pyrrolidin-3-amine], the IC50 [2] is reported as 217 nM.

In the case of `Cc1ccc2sc(C(=O)N3CC(N[C@H]4CCN(C(=O)c5cscn5)C4)C3)c(C(F)(F)F)c2c1` [Cpd 184, (3S)-N-(1-{[5-Methyl-3-(trifluoromethyl)-1-benzothiophen-2-yl]carbonyl}azetidin-3-yl)-1-(1,3-thiazol-4-ylcarbonyl)pyrrolidin-3-amine], the IC50 [2] is reported as 205 nM.

With `Cc1ccc2c(C(F)(F)F)c(C(=O)N3CC(N[C@H]4CCN(C(=O)c5cscn5)C4)C3)sc2c1` [Cpd 185, (3S)-N-(1-{[6-Methyl-3-(trifluoromethyl)-1-benzothiophen-2-yl]carbonyl}azetidin-3-yl)-1-(1,3-thiazol-4-ylcarbonyl)pyrrolidin-3-amine] the IC50 [2] was 488 nM.

In the case of `O=C(c1ccc2c(-c3ccc(F)cc3)c[nH]c2c1)N1CC(N[C@H]2CCN(C(=O)c3cscn3)C2)C1` [Cpd 190, (3S)-N-(1-{[3-(4-Fluorophenyl)-1H-indol-6-yl]carbonyl}azetidin-3-yl)-1-(1,3-thiazol-4-ylcarbonyl)pyrrolidin-3-amine], the IC50 [2] is reported as 114 nM.

`O=C(c1ccc2c(-c3ccc(F)cc3)c[nH]c2c1)N1CC(N[C@H]2CCN(C(=O)c3ccccc3)C2)C1` [Cpd 191, (3S)-N-(1-{[3-(4-Fluorophenyl)-1H-indol-6-yl]carbonyl}azetidin-3-yl)-1-(phenylcarbonyl)pyrrolidin-3-amine] gave an IC50 [2] of 297 nM.

`Cn1nc(-c2ccccc2)c2cc(C(=O)N3CC(N[C@H]4CCN(C(=O)c5cscn5)C4)C3)ccc21` [Cpd 196, (3S)-N-{1-[(1-Methyl-3-phenyl-1H-indazol-5-yl)carbonyl]azetidin-3-yl}-1-(1,3-thiazol-4-ylcarbonyl)pyrrolidin-3-amine] was tested, and the IC50 [2] was 298 nM.

`Cn1nc(-c2ccccc2)c2cc(C(=O)N3CC(N[C@H]4CCN(C(=O)c5ccccc5)C4)C3)ccc21` [Cpd 197, (3S)-N-{1-[(1-Methyl-3-phenyl-1H-indazol-5-yl)carbonyl]azetidin-3-yl}-1-(phenylcarbonyl)pyrrolidin-3-amine] was tested, and the IC50 [2] was 199 nM.

`Cn1nc(-c2cccc(F)c2)c2cc(C(=O)N3CC(N[C@H]4CCN(C(=O)c5nccs5)C4)C3)ccc21` [Cpd 199, (3S)-N-(1-{[3-(3-Fluorophenyl)-1-methyl-1H-indazol-5-yl]carbonyl}azetidin-3-yl)-1-(1,3-thiazol-2-ylcarbonyl)pyrrolidin-3-amine] was tested, and the IC50 [2] was 107 nM.

With `Cn1nc(-c2cccc(F)c2)c2cc(C(=O)N3CC(N[C@H]4CCN(C(=O)c5cscn5)C4)C3)ccc21` [Cpd 200, (3S)-N-(1-{[3-(3-Fluorophenyl)-1-methyl-1H-indazol-5-yl]carbonyl}azetidin-3-yl)-1-(1,3-thiazol-4-ylcarbonyl)pyrrolidin-3-amine] the IC50 [2] was 843 nM.

`Cn1nc(-c2cccc(F)c2)c2cc(C(=O)N3CC(N[C@H]4CCN(C(=O)c5ccccc5)C4)C3)ccc21` [Cpd 201, (3S)-N-(1-{[3-(3-Fluorophenyl)-1-methyl-1H-indazol-5-yl]carbonyl}azetidin-3-yl)-1-(phenylcarbonyl)pyrrolidin-3-amine] gave an IC50 [2] of 459 nM.

`Cn1nc(-c2ccc(F)cc2)c2cc(C(=O)N3CC(N[C@H]4CCN(C(=O)c5nccs5)C4)C3)ccc21` [Cpd 209, (3S)-N-(1-{[3-(4-Fluorophenyl)-1-methyl-1H-indazol-5-yl]carbonyl}azetidin-3-yl)-1-(1,3-thiazol-2-ylcarbonyl)pyrrolidin-3-amine] showed an IC50 [2] of 279 nM.

In the case of `Cn1nc(-c2ccc(F)cc2)c2cc(C(=O)N3CC(N[C@H]4CCN(C(=O)c5cscn5)C4)C3)ccc21` [Cpd 210, (3S)-N-(1-{[3-(4-Fluorophenyl)-1-methyl-1H-indazol-5-yl]carbonyl}azetidin-3-yl)-1-(1,3-thiazol-4-ylcarbonyl)pyrrolidin-3-amine], the IC50 [2] is reported as 2040 nM.

With `Cn1nc(-c2ccc(F)cc2)c2cc(C(=O)N3CC(N[C@H]4CCN(C(=O)c5ccccc5)C4)C3)ccc21` [Cpd 211, (3S)-N-(1-{[3-(4-Fluorophenyl)-1-methyl-1H-indazol-5-yl]carbonyl}azetidin-3-yl)-1-(phenylcarbonyl)pyrrolidin-3-amine] the IC50 [2] was 943 nM.
